Reference: patent EP4606801A1, “FUSED HETEROCYCLIC COMPOUND AND USE THEREOF” (Chengdu Zenitar Biomedical Technology Co., Ltd., priority 2022, dated 2024)

Columns and labels:
PARP5A = biological target: T1, PARP5A (Homo sapiens, UniProt O95271); experiment: Determination of PARP5A enzyme (histone-coated plate, Biotin-NAD+); assay type: biochemical
T1 construct: purchased BPS 80504
Protocol: • 1.3.1 Preparation of buffer solution solution: PBST: 1x PBS, 0.05% Tween-20; blocking solution: 1x PBS, 0.05% Tween-20, 5% BSA; reaction buffer solution: 50 mM HEPES (pH 7.5), 0.002% Tween-20, 0.1% BSA, 100 mM NaCl, 2mM DTT. • 1.3.2 Coating: A 100 ng/mL Histone coating solution was prepared by using 1x PBS, 25 uL of the coating solution was transferred to a 384-well reaction plate, and the reaction plate was coated overnight at 4°C. • 1.3.3 Washing: After the coating was completed, the coating solution was discarded, and the reaction plate was washed with the PBST solution by means of transferring 50uL of the PBST solution to the 384-well reaction plate, letting it stand for 5 min, discarding the washing solution, refilling the reaction plate with the PBST solution, and repeating the washing process 3 times. Finally, the reaction plate was tapped dry and the next step of blocking was proceeded with. • 1.3.4 Blocking: 50 uL of the blocking solution was transferred to the 384-well reaction plate and set for 1 h. • 1.3.5 Washing: After the blocking was completed, the blocking solution was discarded, the reaction plate was washed 3 times with the PBST solution according to the method in Step 2, and the reaction plate was tapped dry. • 1.3.6 A 25/10× PARP5A solution was prepared, then 10 µL of the PARP5A solution was transferred to the 384-well reaction plate. For negative control wells, 10 µL of the reaction buffer solution instead was transferred, resulting in the final concentration of PARP5A of 10 nM. • 1.3.7 A 2,000x compound was prepared, 50 nL of the compound was transferred to with echo, 19.95 uL of the reaction buffer solution was added into the compound, mix well, and 5 uL of the mixed compound was transferred to the 384-well reaction plate. • 1.3.8 A 25/10x Biotin-NAD+ solution was prepared, 10uL of the Biotin-NAD+ solution was transferred to the 384-well reaction plate, resulting in a final Biotin-NAD+ concentration of 2uM, and incubated at room temperature for 60 min. • 1.3.9 Washing: After the reaction was completed, the reaction liquid was discarded. The reaction plate was washed 3 times with the PBST solution according to the method in Step 2, and the reaction plate was tapped dry. • 1.3.10 A Stre-HRP solution was prepared by means of diluting it with the blocking solution, 25uL of the Stre-HRP solution was transferred to the reaction plate, and incubated at room temperature for 1 h, resulting the final concentration of Stre-HRP of 0.1 µg/mL. • 1.3.11 Washing: The Stre-HRP solution was discarded, the reaction plate was washed 3 times with the PBST solution according to the method in Step 2, and the reaction plate was tapped dry. • 1.3.12 Color developing: Femto-ECL Substrate A, Femto-ECL Substrate B, and QuantaRed ADHP were mixed in a 50:50:1 ratio.

gastric cancer PDX model = experiment: In-vivo pharmacodynamic study on PDX gastric cancer mice model; conditions: Fig. 3
Protocol: Experimental procedure: Tumor tissues from gastric cancer patients were used to establish a stable passaged tumor-bearing mice model. In this study, tumor fragments from mice that had been stably passaged three times were used for subcutaneous inoculation. Eight groups were divided for the experiment, with 6 mice in each group. The negative control group (Control) received normal saline at 0.2 mL per mice per administration, given orally once per day; the carboplatin control group (Carboplatin, Car) received 20 mg/kg at 0.2 mL per mice per administration, administered via intraperitoneal injection once every 7 days.

SUM14PT tumor cells = experiment: In-vivo pharmacodynamic study on subcutaneous xenograft tumor model of breast cancer SUM14PT; set-up: species or system nude mice; conditions: Fig. 4
Protocol: Experimental procedure: In this study, a mice model was established by subcutaneously inoculating SUM14PT tumor cells. Eight groups were divided for the experiment, with 6 mice in each group. The negative control group (Control) received normal saline at 0.2 mL per mice per administration, given orally once per day; the carboplatin control group (Carboplatin, Car) received 20 mg/kg at 0.2 mL per mice per administration, administered via intraperitoneal injection once every 7 days.

T1 sequence (O95271 1001-1327): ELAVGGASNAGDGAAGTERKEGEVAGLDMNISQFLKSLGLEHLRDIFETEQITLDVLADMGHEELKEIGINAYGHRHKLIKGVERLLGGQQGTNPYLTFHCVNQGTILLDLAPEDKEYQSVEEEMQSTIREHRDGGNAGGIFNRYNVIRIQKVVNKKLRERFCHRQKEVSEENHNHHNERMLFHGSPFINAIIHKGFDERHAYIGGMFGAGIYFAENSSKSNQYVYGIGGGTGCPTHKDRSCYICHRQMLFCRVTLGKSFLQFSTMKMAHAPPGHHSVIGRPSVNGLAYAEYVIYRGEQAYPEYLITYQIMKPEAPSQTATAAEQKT

For [2H]C([2H])([2H])C([2H])([2H])c1cc2ncc(CN3CC=C(c4ccc(C(=O)NC)nc4)CC3)cc2[nH]c1=O [Compound 6, 1'-((7-(ethyl-d5)-6-oxo-5,6-dihydro-1,5-naphthyridin-3-yl)methyl)-N-methyl-1',2',3',6'-tetrahy dro-[3,4'-bipyridine]-6-carboxamide], the IC50 (PARP5A) was > 1000 nM, the “tumor growth in gastric cancer PDX model” value (gastric cancer PDX model; 3 mg/kg p.o once per day combined with carboplatin 20 mg/kg i.p once per 7 days) was “significantly inhibit tumor growth” and the “inhibitory effect on the gastric cancer PDX model” value (gastric cancer PDX model; 0.3, 1, 3 mg/kg p.o once per day combined with carboplatin 20 mg/kg i.p once per 7 days) was “dose-dependent inhibitory effect”. For the same compound, the “therapeutic efficacy in combination with carboplatin” value (SUM14PT tumor cells; 1 mg/kg orally once daily + carboplatin, versus Olaparib 100 mg/kg + carboplatin) was “better therapeutic efficacy than Olaparib” and the “anti-tumor efficacy, monotherapy” value (SUM14PT tumor cells; 0.3 and 1 mg/kg orally once daily, versus Olaparib 100 mg/kg orally once daily) was “better anti-tumor efficacy compared to Olaparib”.
